Experiments:
PDE4B1 = target: T1, PDE4B1 (Homo sapiens, UniProt Q07343); experiment: Inhibition of PDE4 activity (PDE4B1, SPA assay); format: biochemical; conditions: recombinant PDE4B1, 0.5 μM cAMP; read-out: PDE4B1 Inhibitory values measured as -logIC50 (converted)
T1 construct: made in house; host or cells: SF21 insect cells (baculovirus; virus made in SF9 cells, pCR-Bac vector)
How it was run: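 Baculovirus-expressed enzyme from SF21 cell 1000×g supernatant; substrate 0.5 μM [3H]cAMP in 20 mM Tris pH 7.4, 5 mM Mg2+, 0.1 mg/ml BSA, 10-20% conversion. 5 min preincubation at 37 °C, 15 min reaction, stopped by SPA beads with IBMX; IC50 by non-linear regression.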

human PDE5 = target: T2, human PDE5 (Homo sapiens, UniProt O76074); experiment: Inhibition of PDE5 activity (platelet lysate, SPA assay); format: biochemical; conditions: 0.5 μM cGMP, read-out: PDE5 Inhibitory values measured as -logIC50 (converted)
T2 construct: from tissue; host or cells: human platelets from fresh donor blood (platelet lysate)
How it was run: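 Human platelet lysate (10,000 g supernatant) served as PDE5 source, with 1 μM motapizone and 10 nM PDE2 inhibitor added, in Tris pH 7.4, 5 mM Mg2+, BSA. Substrate 0.5 μM [3H]cGMP, 10–20% conversion; 5 min preincubation then 15 min at 37 °C, stopped by SPA beads with IBMX. IC50 by non-linear regression.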

T1 sequence (Q07343 whole entry): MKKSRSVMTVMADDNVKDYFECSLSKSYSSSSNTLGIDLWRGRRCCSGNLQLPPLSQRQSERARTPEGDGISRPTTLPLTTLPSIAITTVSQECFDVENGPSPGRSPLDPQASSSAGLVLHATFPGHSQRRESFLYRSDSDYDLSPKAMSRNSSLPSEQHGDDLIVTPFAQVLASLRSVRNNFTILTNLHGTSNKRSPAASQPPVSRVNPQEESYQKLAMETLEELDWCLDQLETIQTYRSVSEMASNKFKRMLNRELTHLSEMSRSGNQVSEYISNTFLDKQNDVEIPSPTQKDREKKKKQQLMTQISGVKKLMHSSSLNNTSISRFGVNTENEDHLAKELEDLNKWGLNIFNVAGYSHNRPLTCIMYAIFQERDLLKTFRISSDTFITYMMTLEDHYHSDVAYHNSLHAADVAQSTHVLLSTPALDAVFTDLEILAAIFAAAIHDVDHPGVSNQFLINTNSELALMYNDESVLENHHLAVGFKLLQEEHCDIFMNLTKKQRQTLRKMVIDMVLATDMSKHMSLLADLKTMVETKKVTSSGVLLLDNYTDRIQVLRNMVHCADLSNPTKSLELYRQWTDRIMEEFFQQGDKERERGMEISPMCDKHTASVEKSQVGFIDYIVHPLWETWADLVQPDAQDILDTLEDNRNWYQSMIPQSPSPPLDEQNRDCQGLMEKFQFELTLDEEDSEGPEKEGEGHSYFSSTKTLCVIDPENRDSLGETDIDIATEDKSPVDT

SMILES	IC50 (PDE4B1)	IC50 (human PDE5)
COc1ccc(C2=NN(C3CCN(C(=O)[C@@H](Cc4ccc(Cl)cc4Cl)NC(=O)c4c[nH]c5c(-c6c(OCC7CC7)ccc7c6OCO7)ncnc45)CC3)C(=O)[C@@H]3CCCC[C@H]23)cc1OC [Example 48, 4-[5-(cyclopropylmethoxy)-1,3-benzodioxol-4-yl]-N-[(2R)-3-(2,4-dichlorophenyl)-1-{4-[(4aS,8aR)-4-(3,4-dimethoxyphenyl)-1-oxo-4a,5,6,7,8,8a-hexahydrophthalazin-2(1H)-yl]piperidin-1-yl}-1-oxopropan-2-yl]-5H-pyrrolo[3,2-d]pyrimidine-7-carboxamide]	< 1 nM	< 1 nM
COc1ccc(C2=NN(C3CCN(C(=O)[C@@H](Cc4ccccc4Cl)NC(=O)c4c(C)[nH]c5c(-c6c(OCC7CC7)ccc7c6OCO7)ncnc45)CC3)C(=O)[C@@H]3CCCC[C@H]23)cc1OC [Example 34, N-[(2R)-3-(2-chlorophenyl)-1-{4-[(4aS,8aR)-4-(3,4-dimethoxyphenyl)-1-oxo-4a,5,6,7,8,8a-hexahydrophthalazin-2(1H)-yl]piperidin-1-yl}-1-oxopropan-2-yl]-4-[5-(cyclopropylmethoxy)-1,3-benzodioxol-4-yl]-6-methyl-5H-pyrrolo[3,2-d]pyrimidine-7-carboxamide]	< 1 nM	< 1 nM
COc1ccc(C2=NN(C3CCN(C(=O)[C@H](Cc4ccccc4)NC(=O)c4c[nH]c5c(-c6c(OCC7CC7)ccc7c6OCO7)ncnc45)CC3)C(=O)[C@@H]3CCCC[C@H]23)cc1OC [Example 36, 4-[5-(cyclopropylmethoxy)-1,3-benzodioxol-4-yl]-N-[(2S)-1-{4-[(4aS,8aR)-4-(3,4-dimethoxyphenyl)-1-oxo-4a,5,6,7,8,8a-hexahydrophthalazin-2(1H)-yl]piperidin-1-yl}-1-oxo-3-phenylpropan-2-yl]-5H-pyrrolo[3,2-d]pyrimidine-7-carboxamide]	1 to 10 nM	1 to 10 nM
COc1ccc(C2=NN(C3CCN(C(=O)[C@@H](CC(C)C)NC(=O)c4c[nH]c5c(-c6c(OCC7CC7)ccc7c6OCO7)ncnc45)CC3)C(=O)[C@@H]3CCCC[C@H]23)cc1OC [Example 95, 4-[5-(cyclopropylmethoxy)-1,3-benzodioxol-4-yl]-N-[(2R)-1-{4-[(4aS,8aR)-4-(3,4-dimethoxyphenyl)-1-oxo-4a,5,6,7,8,8a-hexahydrophthalazin-2(1H)-yl]piperidin-1-yl}-4-methyl-1-oxopentan-2-yl]-5H-pyrrolo[3,2-d]pyrimidine-7-carboxamide]	< 1 nM	< 1 nM
COc1ccc(C2=NN(C3CCN(C(=O)[C@@H](Cc4ccccc4)NC(=O)c4c[nH]c5c(-c6c(OCC7CC7)ccc7c6OCO7)ncnc45)CC3)C(=O)[C@@H]3CCCC[C@H]23)cc1OC [Example 31, 4-[5-(cyclopropylmethoxy)-1,3-benzodioxol-4-yl]-N-[(2R)-1-{4-[(4aS,8aR)-4-(3,4-dimethoxyphenyl)-1-oxo-4a,5,6,7,8,8a-hexahydrophthalazin-2(1H)-yl]piperidin-1-yl}-1-oxo-3-phenylpropan-2-yl]-5H-pyrrolo[3,2-d]pyrimidine-7-carboxamide]	1 to 10 nM	< 1 nM
COc1ccc(C2=NN(C3CCN(C(=O)[C@H](Cc4ccncc4)NC(=O)c4c(C)[nH]c5c(-c6c(OCC7CC7)ccc7c6OCO7)ncnc45)CC3)C(=O)[C@@H]3CCCC[C@H]23)cc1OC [Example 40, 4-[5-(cyclopropylmethoxy)-1,3-benzodioxol-4-yl]-N-[(2S)-1-{4-[(4aS,8aR)-4-(3,4-dimethoxyphenyl)-1-oxo-4a,5,6,7,8,8a-hexahydrophthalazin-2(1H)-yl]piperidin-1-yl}-1-oxo-3-(pyridin-4-yl)propan-2-yl]-6-methyl-5H-pyrrolo[3,2-d]pyrimidine-7-carboxamide]	1 to 10 nM	< 1 nM
COc1ccc(C2=NN(C3CCN(C(=O)[C@@H](Cc4ccc(C)cc4)NC(=O)c4c[nH]c5c(-c6c(OCC7CC7)ccc7c6OCO7)ncnc45)CC3)C(=O)[C@@H]3CCCC[C@H]23)cc1OC [Example 21, 4-[5-(cyclopropylmethoxy)-1,3-benzodioxol-4-yl]-N-[(2R)-1-{4-[(4aS,8aR)-4-(3,4-dimethoxyphenyl)-1-oxo-4a,5,6,7,8,8a-hexahydrophthalazin-2(1H)-yl]piperidin-1-yl}-3-(4-methylphenyl)-1-oxopropan-2-yl]-5H-pyrrolo[3,2-d]pyrimidine-7-carboxamide]	1 to 10 nM	< 1 nM
COc1cc(OCC2CC2)c(-c2ncnc3c(C(=O)N[C@H](Cc4ccccc4)C(=O)N4CCC(N5N=C(c6ccc(OC)c(OC)c6)[C@H]6CCCC[C@H]6C5=O)CC4)c[nH]c23)cc1F [Example 23, 4-[2-(cyclopropylmethoxy)-5-fluoro-4-methoxyphenyl]-N-[(2R)-1-{4-[(4aS,8aR)-4-(3,4-dimethoxyphenyl)-1-oxo-4a,5,6,7,8,8a-hexahydrophthalazin-2(1H)-yl]piperidin-1-yl}-1-oxo-3-phenylpropan-2-yl]-5H-pyrrolo[3,2-d]pyrimidine-7-carboxamide]	1 to 10 nM	1 to 10 nM
COc1ccc(C2=NN(C3CCN(C(=O)[C@H](Cn4cccn4)NC(=O)c4c[nH]c5c(-c6c(OCC7CC7)ccc7c6OCO7)ncnc45)CC3)C(=O)[C@@H]3CCCC[C@H]23)cc1OC [Example 88, 4-[5-(cyclopropylmethoxy)-1,3-benzodioxol-4-yl]-N-[(2S)-1-{4-[(4aS,8aR)-4-(3,4-dimethoxyphenyl)-1-oxo-4a,5,6,7,8,8a-hexahydrophthalazin-2(1H)-yl]piperidin-1-yl}-1-oxo-3-(1H-pyrazol-1-yl)propan-2-yl]-5H-pyrrolo[3,2-d]pyrimidine-7-carboxamide]	1 to 10 nM	1 to 10 nM
COc1ccc(C2=NN(C3CCN(C(=O)[C@@H](Cc4ccccc4)NC(=O)c4c[nH]c5c(-c6c(OCC7CC7)ccc7c6OCO7)ncnc45)CC3)C(=O)[C@@H]3CCC[C@H]23)cc1OC [Example 55, 4-[5-(cyclopropylmethoxy)-1,3-benzodioxol-4-yl]-N-[(2R)-1-{4-[(4aS,7aR)-4-(3,4-dimethoxyphenyl)-1-oxo-1,4a,5,6,7,7a-hexahydro-2H-cyclopenta[d]pyridazin-2-yl]piperidin-1-yl}-1-oxo-3-phenylpropan-2-yl]-5H-pyrrolo[3,2-d]pyrimidine-7-carboxamide]	1 to 10 nM	1 to 10 nM
COc1ccc(C2=NN(C3CCN(C(=O)CNC(=O)c4c[nH]c5c(-c6c(OCC7CC7)ccc7c6OCO7)ncnc45)CC3)C(=O)[C@@H]3CCCC[C@H]23)cc1OC [Example 59, 4-[5-(cyclopropylmethoxy)-1,3-benzodioxol-4-yl]-N-(2-{4-[(4aS,8aR)-4-(3,4-dimethoxyphenyl)-1-oxo-4a,5,6,7,8,8a-hexahydrophthalazin-2(1H)-yl]piperidin-1-yl}-2-oxoethyl)-5H-pyrrolo[3,2-d]pyrimidine-7-carboxamide]	< 1 nM	1 to 10 nM
COc1cc(-c2ncnc3c(C(=O)N[C@H](Cc4ccccc4)C(=O)N4CCC(N5N=C(c6ccc(OC)c(OC)c6)[C@H]6CCCC[C@H]6C5=O)CC4)c[nH]c23)c(OCC2CC2)cc1F [Example 24, 4-[2-(cyclopropylmethoxy)-4-fluoro-5-methoxyphenyl]-N-[(2R)-1-{4-[(4aS,8aR)-4-(3,4-dimethoxyphenyl)-1-oxo-4a,5,6,7,8,8a-hexahydrophthalazin-2(1H)-yl]piperidin-1-yl}-1-oxo-3-phenylpropan-2-yl]-5H-pyrrolo[3,2-d]pyrimidine-7-carboxamide]	1 to 10 nM	1 to 10 nM
COc1ccc(C2=NN(C3CCN(C(=O)[C@@H](Cc4cc(F)cc(F)c4)NC(=O)c4c[nH]c5c(-c6c(OCC7CC7)ccc7c6OCO7)ncnc45)CC3)C(=O)[C@@H]3CCCC[C@H]23)cc1OC [Example 1, 4-[5-(cyclopropylmethoxy)-1,3-benzodioxol-4-yl]-N-[(2R)-3-(3,5-difluorophenyl)-1-{4-[(4aS,8aR)-4-(3,4-dimethoxyphenyl)-1-oxo-4a,5,6,7,8,8a-hexahydrophthalazin-2(1H)-yl]piperidin-1-yl}-1-oxopropan-2-yl]-5H-pyrrolo[3,2-d]pyrimidine-7-carboxamide]	< 1 nM	1 to 10 nM
COc1ccc(C2=NN(C3CCN(C(=O)[C@@H](CCc4ccccc4)NC(=O)c4c[nH]c5c(-c6c(OCC7CC7)ccc7c6OCO7)ncnc45)CC3)C(=O)[C@@H]3CCCC[C@H]23)cc1OC [Example 65, 4-[5-(cyclopropylmethoxy)-1,3-benzodioxol-4-yl]-N-[(2R)-1-{4-[(4aS,8aR)-4-(3,4-dimethoxyphenyl)-1-oxo-4a,5,6,7,8,8a-hexahydrophthalazin-2(1H)-yl]piperidin-1-yl}-1-oxo-4-phenylbutan-2-yl]-5H-pyrrolo[3,2-d]pyrimidine-7-carboxamide]	< 1 nM	< 1 nM
COc1ccc(C2=NN(C3CCN(C(=O)[C@@H](Cc4ccccc4)NC(=O)c4c[nH]c5c(-c6c(OCC7CC7)ccc7c6OCO7)ncnc45)CC3)C(=O)C(C)(C)C2)cc1OC [Example 67, 4-[5-(cyclopropylmethoxy)-1,3-benzodioxol-4-yl]-N-[(2R)-1-{4-[3-(3,4-dimethoxyphenyl)-5,5-dimethyl-6-oxo-5,6-dihydropyridazin-1(4H)-yl]piperidin-1-yl}-1-oxo-3-phenylpropan-2-yl]-5H-pyrrolo[3,2-d]pyrimidine-7-carboxamide]	< 1 nM	1 to 10 nM
